Type in all cases: biochemical
The target of experiment [1] is T1, human JAK3 (a.a. 781-1124) (Homo sapiens, UniProt P52333).
T1 construct: JAK3 (a.a. 781-1124); His tag (N); made in house; host or cells: insect cells (baculovirus)
The experiment in a line: In vitro JAK kinase assay (HTRF, phosphorylation of a biotinylated peptide), JAK3. The procedure, abridged: (§1)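 Kinase reactions ran at room temperature for 1 h with ATP matched per isoform (JAK1 90 μM, JAK2 30 μM, JAK3 3 μM). After an EDTA stop, the phosphorylated biotin-peptide was read by HTRF using Eu-Py20 and SA-APC after 40 min binding.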
On the technique in general: Time-resolved FRET reads energy transfer from a long-lived donor to a nearby acceptor.

The target in the next experiment is TYK2 (Homo sapiens, UniProt P29597). Nature of the experiment: TYK2 kinase inhibition (Table A1).
TYK2, sequence (P29597 whole entry): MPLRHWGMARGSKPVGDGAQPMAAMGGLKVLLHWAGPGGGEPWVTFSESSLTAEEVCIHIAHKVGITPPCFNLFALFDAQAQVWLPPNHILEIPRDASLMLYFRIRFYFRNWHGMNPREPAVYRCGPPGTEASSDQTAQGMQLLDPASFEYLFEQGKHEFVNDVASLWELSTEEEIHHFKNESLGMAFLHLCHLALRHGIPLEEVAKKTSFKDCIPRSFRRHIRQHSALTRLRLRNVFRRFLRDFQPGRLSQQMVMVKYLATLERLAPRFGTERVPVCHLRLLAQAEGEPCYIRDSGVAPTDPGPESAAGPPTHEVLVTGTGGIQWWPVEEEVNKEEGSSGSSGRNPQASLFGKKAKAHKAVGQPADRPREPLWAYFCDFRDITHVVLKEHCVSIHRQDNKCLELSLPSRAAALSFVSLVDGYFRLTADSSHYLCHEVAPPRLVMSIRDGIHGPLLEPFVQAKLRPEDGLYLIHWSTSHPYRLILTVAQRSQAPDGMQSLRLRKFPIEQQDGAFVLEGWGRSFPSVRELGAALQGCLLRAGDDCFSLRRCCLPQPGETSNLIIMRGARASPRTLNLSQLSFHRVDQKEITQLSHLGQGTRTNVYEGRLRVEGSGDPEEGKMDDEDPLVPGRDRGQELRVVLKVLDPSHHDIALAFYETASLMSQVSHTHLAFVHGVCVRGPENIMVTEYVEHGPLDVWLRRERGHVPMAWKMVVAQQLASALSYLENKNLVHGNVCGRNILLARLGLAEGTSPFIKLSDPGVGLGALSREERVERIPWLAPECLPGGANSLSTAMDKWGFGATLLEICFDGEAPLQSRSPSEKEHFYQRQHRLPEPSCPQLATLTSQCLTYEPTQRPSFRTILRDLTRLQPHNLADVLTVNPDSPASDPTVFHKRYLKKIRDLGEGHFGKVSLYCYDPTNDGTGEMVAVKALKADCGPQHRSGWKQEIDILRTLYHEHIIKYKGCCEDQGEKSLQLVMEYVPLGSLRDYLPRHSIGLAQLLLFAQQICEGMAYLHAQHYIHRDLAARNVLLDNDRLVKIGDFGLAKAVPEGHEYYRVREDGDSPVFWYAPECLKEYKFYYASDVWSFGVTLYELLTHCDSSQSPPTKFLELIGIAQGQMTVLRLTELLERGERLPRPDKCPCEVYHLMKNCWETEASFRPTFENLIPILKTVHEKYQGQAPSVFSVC
Experiment [2] addresses T2, Recombinant Human Anaplastic Lymphoma Kinase (Homo sapiens, UniProt Q9UM73).
T2 construct: purchased Invitrogen, Carlsbad, Calif
Nature of the experiment: ALK HTRF kinase assay. In short, it runs like this: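 Compounds were incubated with recombinant human ALK and a biotin-tagged peptide substrate. Product was captured with streptavidin-APC and probed with a europium anti-phosphotyrosine antibody, and plates were read for time-resolved fluorescence. Dose-response data were fitted to derive IC50.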

Experiment [3] deals with T3, human JAK2 (a.a. 828-1132) (Homo sapiens, UniProt O60674).
T3 construct: JAK2 (a.a. 828-1132); His tag (N); made in house; host or cells: insect cells (baculovirus)
T3 sequence (O60674 828-1132): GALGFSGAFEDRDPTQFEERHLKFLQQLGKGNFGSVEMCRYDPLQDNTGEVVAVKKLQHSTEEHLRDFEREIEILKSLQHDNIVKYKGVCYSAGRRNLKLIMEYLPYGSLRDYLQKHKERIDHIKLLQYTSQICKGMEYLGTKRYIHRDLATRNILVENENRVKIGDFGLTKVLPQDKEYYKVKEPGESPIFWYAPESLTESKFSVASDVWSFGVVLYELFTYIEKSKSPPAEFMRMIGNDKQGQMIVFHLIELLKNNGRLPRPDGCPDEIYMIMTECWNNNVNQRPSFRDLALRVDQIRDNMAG
Nature of the experiment: In vitro JAK kinase assay (HTRF, phosphorylation of a biotinylated peptide), JAK2. In short, it runs like this:
as §1

In experiment [4] the target is T4, human JAK1 (a.a. 837-1142) (Homo sapiens, UniProt P23458).
T4 construct: human JAK1 (a.a. 837-1142); His tag (N); made in house; host or cells: insect cells (baculovirus)
T4 sequence (P23458 849-1154): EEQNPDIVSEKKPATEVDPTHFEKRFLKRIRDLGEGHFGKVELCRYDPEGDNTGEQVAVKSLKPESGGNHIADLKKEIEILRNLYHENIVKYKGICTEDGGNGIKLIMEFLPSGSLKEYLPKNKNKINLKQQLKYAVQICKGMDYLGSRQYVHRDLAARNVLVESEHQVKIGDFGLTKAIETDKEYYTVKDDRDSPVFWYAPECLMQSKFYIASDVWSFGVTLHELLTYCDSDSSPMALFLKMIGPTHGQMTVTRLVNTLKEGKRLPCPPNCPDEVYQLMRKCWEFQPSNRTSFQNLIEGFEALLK
The experiment in a line: In vitro JAK kinase assay (HTRF, phosphorylation of a biotinylated peptide), JAK1. The note with it: read-out: JAK1 IC50. In short, it runs like this: as §1

Setting [5] is: method AA1 (3 μM ATP) or AA2 (1000 μM ATP), not stated per value.
[6] abbreviates: compound at 500 nM or 1 mM, 90 μM ATP.
Setting [7] is: method AA1 (30 μM ATP) or AA2 (1000 μM ATP), not stated per value.
The mark [8] stands for this setting: method AA1 (90 μM ATP) or AA2 (1000 μM ATP), not stated per value.
[9] abbreviates: compound at a concentration of 500 nM or 1 mM (not specified), cells shown as percentage.
Setting [10] is: percentage inhibition of the example compound at a concentration of 500 nM or 1 mM (not specified which).

Structures can show the parent of a compound that is named as a salt. Where two headings read alike, the source gives them in different places.

T2 sequence (Q9UM73 19-1620): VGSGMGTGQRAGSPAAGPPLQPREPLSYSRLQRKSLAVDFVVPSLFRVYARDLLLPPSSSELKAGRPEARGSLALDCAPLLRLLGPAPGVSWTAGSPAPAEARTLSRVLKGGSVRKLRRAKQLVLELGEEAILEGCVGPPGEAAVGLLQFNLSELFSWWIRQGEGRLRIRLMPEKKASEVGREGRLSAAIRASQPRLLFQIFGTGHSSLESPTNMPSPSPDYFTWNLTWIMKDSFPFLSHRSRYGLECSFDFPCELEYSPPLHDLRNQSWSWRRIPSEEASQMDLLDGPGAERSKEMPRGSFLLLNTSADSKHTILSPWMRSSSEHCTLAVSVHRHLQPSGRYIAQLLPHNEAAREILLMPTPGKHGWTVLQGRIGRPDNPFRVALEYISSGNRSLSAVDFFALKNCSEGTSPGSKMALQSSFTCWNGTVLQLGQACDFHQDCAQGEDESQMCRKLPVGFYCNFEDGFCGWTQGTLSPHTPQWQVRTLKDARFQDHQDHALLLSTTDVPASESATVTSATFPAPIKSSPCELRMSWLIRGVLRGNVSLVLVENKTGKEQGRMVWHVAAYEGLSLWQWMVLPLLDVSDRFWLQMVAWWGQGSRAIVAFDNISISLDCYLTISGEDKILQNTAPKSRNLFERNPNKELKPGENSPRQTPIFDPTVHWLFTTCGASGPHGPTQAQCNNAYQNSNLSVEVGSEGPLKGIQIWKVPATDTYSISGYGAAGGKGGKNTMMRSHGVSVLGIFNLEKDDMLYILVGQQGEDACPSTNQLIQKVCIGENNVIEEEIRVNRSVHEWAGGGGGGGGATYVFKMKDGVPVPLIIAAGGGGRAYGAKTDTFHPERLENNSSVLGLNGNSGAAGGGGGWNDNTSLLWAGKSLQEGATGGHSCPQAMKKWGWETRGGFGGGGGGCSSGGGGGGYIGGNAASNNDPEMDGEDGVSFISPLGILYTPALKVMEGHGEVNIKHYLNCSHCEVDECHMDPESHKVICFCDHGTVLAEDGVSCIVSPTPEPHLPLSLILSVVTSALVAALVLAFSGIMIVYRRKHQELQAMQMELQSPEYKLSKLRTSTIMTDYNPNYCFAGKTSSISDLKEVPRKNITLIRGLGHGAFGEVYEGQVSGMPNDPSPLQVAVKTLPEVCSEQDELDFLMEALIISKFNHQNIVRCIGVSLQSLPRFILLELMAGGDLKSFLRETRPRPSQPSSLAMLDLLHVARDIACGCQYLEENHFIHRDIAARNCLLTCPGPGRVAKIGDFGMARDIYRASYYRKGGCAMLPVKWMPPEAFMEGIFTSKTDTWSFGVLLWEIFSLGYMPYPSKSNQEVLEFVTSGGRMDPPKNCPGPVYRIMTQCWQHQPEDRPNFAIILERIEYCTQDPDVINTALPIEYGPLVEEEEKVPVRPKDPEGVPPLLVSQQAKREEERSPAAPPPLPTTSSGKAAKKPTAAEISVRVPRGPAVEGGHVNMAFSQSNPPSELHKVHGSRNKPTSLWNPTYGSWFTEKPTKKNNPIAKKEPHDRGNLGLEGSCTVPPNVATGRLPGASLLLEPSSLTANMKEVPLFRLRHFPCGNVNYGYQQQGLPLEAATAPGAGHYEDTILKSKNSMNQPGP
T1 sequence (P52333 781-1124): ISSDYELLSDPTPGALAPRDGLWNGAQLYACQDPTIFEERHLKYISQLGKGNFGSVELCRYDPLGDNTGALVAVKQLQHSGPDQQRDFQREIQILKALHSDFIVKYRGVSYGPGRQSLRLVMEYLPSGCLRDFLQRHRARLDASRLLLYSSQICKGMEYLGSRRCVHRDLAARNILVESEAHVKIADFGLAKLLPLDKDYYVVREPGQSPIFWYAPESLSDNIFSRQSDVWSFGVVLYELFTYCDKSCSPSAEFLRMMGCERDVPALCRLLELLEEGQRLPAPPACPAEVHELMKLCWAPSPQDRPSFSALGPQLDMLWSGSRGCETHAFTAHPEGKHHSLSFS

On to `N#Cc1ccnc(N2CCC(CC(=O)Nc3ccc4cc3CCc3cncc(c3)Nc3ncc(Cl)c(n3)N4)CC2)c1` [Example A178, N-[6-Chloro-2,4,8,18,22-pentaazatetracyclo[14.3.1.1(3,7).1(9,13)]docosa-1(20),3(22),4,6,9(21),10,12,16,18-nonaen-12-yl]-2-[1-(4-cyanopyridin-2-yl)piperidin-4-yl]acetamide tris(trifluoroacetate)], for which the IC50 (as a rule, the concentration needed to halve the response being measured) in experiment [1] (setting [5]) is above 200 nM; against TYK2 it was above 200 nM; in experiment [3] (setting [7]), above 200 nM; in experiment [4] (setting [8]), 68 nM. Besides, the “ALK % of inhibition at a concentration of 500 nM or 1 mM” value (“ALK % of inhibition” below) in experiment [2] (setting [6]) is listed as 26%.
For the compound `CC(C)(C)OC(=O)N1CCN(Cc2ccc3cc2CCc2cccc(c2)Nc2ncc(Cl)c(n2)N3)CC1` [Example B221, tert-Butyl 4-{[6-chloro-2,4,8,22-tetraazatetracyclo[14.3.1.1(3,7).1(9,13)]docosa-1(20),3(22),4,6,9(21),10,12,16,18-nonaen-12-yl]methyl}piperazine-1-carboxylate bis(trifluoroacetate)], the IC50 in experiment [1] (Table B1) is 59 nM; at TYK2 (Table B1), 43 nM; in experiment [3] (Table B1), 19 nM; in experiment [4] (Table B1), 12 nM. Moreover, the “ALK % of inhibition” value in experiment [2] (setting [9]) came out at 8.1%.
Regarding `COc1ccc(NC(=O)N2CCC(CC(=O)Nc3ccc4cc3CCc3cncc(c3)Nc3ncc(Cl)c(n3)N4)CC2)cc1` [Example A154, 4-(2-{[6-Chloro-2,4,8,18,22-pentaazatetracyclo[14.3.1.1(3,7).1(9,13)]docosa-1(20),3(22),4,6,9(21),10,12,16,18-nonaen-12-yl]amino}-2-oxoethyl)-N-(4-methoxyphenyl)piperidine-1-carboxamide bis(trifluoroacetate)], the IC50 in experiment [1] (setting [5]) was above 100 nM; against TYK2 it was 3.1 nM; in experiment [3] (setting [7]) it was 2.6 nM; in experiment [4] (setting [8]), 0.6 nM. Also, the “ALK % of inhibition” value in experiment [2] (setting [6]) was found to be 51%.
For `O=C(Cc1ccccc1)Nc1cc2cc(c1)OCCSc1cccc(c1)Nc1nc(ncc1Cl)N2` [Example D64, trifluoroacetate], the IC50 in experiment [1] (Table D1) was 8.4 nM; at TYK2 (Table D1), 3.7 nM; in experiment [2] (Table D1, 90 μM ATP), 450 nM; in experiment [3] (Table D1) it was 0.2 nM; in experiment [4] (Table D1), 3.8 nM.
As to `O=C(Nc1ccc2cc1CCc1cncc(c1)Nc1ncc(Cl)c(n1)N2)N1CCN(c2ccccc2Cl)CC1` [Example B305, N-[6-Chloro-2,4,8,18,22-pentaazatetracyclo[14.3.1.1(3,7).1(9,13)]docosa-1(20),3(22),4,6,9(21),10,12,16,18-nonaen-12-yl]-4-(2-chlorophenyl)piperazine-1-carboxamide bis(trifluoroacetate)], the IC50 in experiment [1] (Table B1) is above 400 nM; at TYK2 (Table B1), 38 nM; in experiment [3] (Table B1), 148 nM; in experiment [4] (Table B1) it was 15 nM. Besides, the “ALK % of inhibition” value in experiment [2] (setting [10]) came to 79%.
As for `CNC(=O)Nc1ccc2cc1CCc1cncc(c1)Nc1ncc(Cl)c(n1)N2` [Example B135, N-[6-Chloro-2,4,8,18,22-pentaazatetracyclo[14.3.1.1(3,7).1(9,13)]docosa-1(20),3(22),4,6,9(21),10,12,16,18-nonaen-12-yl]-N′-methylurea bis(trifluoroacetate)], the IC50 in experiment [1] (Table B1) was 30 nM; against TYK2 (Table B1), 6.8 nM; in experiment [3] (Table B1), 4.3 nM; in experiment [4] (Table B1), 0.69 nM. In addition, the “ALK % of inhibition” value in experiment [2] (setting [9]) amounted to 13%.
As to `CC(C)(C)NS(=O)(=O)c1cc2cc(c1)Nc1nc(ncc1Br)Nc1cccc(c1)CC2` [Example B17, 6-Bromo-N-(tert-butyl)-2,4,8,22-tetraazatetracyclo[14.3.1.1(3,7).1(9,13)]docosa-1(20),3(22),4,6,9(21),10,12,16,18-nonaene-11-sulfonamide trifluoroacetate], the IC50 in experiment [1] (Table B1) is 126 nM; on TYK2 (Table B1) it was 152 nM; in experiment [2] (Table B1, cells without percent sign), above 10000 nM; in experiment [3] (Table B1), 11 nM; in experiment [4] (Table B1), 71 nM.
With `O=C(CC1CCN(S(=O)(=O)c2ccco2)CC1)Nc1ccc2cc1CCc1cccc(c1)Nc1ncc(Cl)c(n1)N2` [Example A211, N-[6-Chloro-2,4,8,22-tetraazatetracyclo[14.3.1.1(3,7).1(9,13)]docosa-1(20),3(22),4,6,9(21),10,12,16,18-nonaen-12-yl]-2-[1-(2-furylsulfonyl)piperidin-4-yl]acetamide trifluoroacetate], the half-maximal inhibitory concentration (IC50) in experiment [1] (setting [5]) was above 200 nM; on TYK2, 150 nM; in experiment [3] (setting [7]), 66 nM; in experiment [4] (setting [8]) it was 12 nM. The “ALK % of inhibition” value in experiment [2] (setting [6]) is given as 37%.
As for `Cc1cc(C(=O)N2CCC(CCC(=O)Nc3ccc4cc3CCc3cncc(c3)Nc3ncc(Cl)c(n3)N4)CC2)no1` [Example A125, N-[6-Chloro-2,4,8,18,22-pentaazatetracyclo[14.3.1.1(3,7).1(9,13)]docosa-1(20),3(22),4,6,9(21),10,12,16,18-nonaen-12-yl]-3-{1-[(5-methylisoxazol-3-yl)carbonyl]piperidin-4-yl}propanamide bis(trifluoroacetate)], the IC50 in experiment [1] (setting [5]) stood at 90 nM; against TYK2, 5.3 nM; in experiment [3] (setting [7]) it was 4.9 nM; in experiment [4] (setting [8]), 1.7 nM. Besides, in experiment [2] (setting [6]), the “ALK % of inhibition” value was determined as 25%.
Take `O=C(Nc1ccc2cc1CCc1cccc(c1)Nc1ncc(Cl)c(n1)N2)Nc1ccccc1-c1ccccc1` [Example B130, N-Biphenyl-2-yl-N′-[6-chloro-2,4,8,22-tetraazatetracyclo[14.3.1.1(3,7).1(9,13)]docosa-1(20),3(22),4,6,9(21),10,12,16,18-nonaen-12-yl]urea trifluoroacetate]: the IC50 in experiment [1] (Table B1) was 331 nM; against TYK2 (Table B1), 64 nM; in experiment [3] (Table B1), 11 nM; in experiment [4] (Table B1) it was 11 nM. Further, the “ALK % of inhibition” value in experiment [2] (setting [9]) is given as 0%.
`O=C(NCCNS(=O)(=O)C1CC1)Nc1ccc2cc1CCc1cccc(c1)Nc1ncc(Cl)c(n1)N2` [Example B327, N-{2-[({[6-Chloro-2,4,8,22-tetraazatetracyclo[14.3.1.1(3,7).1(9,13)]docosa-1(20),3(22),4,6,9(21),10,12,16,18-nonaen-12-yl]amino}carbonyl)amino]ethyl}cyclopropanesulfonamide trifluoroacetate]: the IC50 is 4.2 nM in experiment [1] (Table B1), 5 nM on TYK2 (Table B1), 1.8 nM in experiment [3] (Table B1) and 2 nM in experiment [4] (Table B1). The “ALK % of inhibition” value in experiment [2] (setting [10]) was found to be 19%.
With `COc1cccc(S(=O)(=O)N2CCC(CC(=O)Nc3ccc4cc3CCc3cncc(c3)Nc3ncc(Cl)c(n3)N4)CC2)c1` [Example A196, N-[6-Chloro-2,4,8,18,22-pentaazatetracyclo[14.3.1.1(3,7).1(9,13)]docosa-1(20),3(22),4,6,9(21),10,12,16,18-nonaen-12-yl]-2-{1-[(3-methoxyphenyl)sulfonyl]piperidin-4-yl}acetamide bis(trifluoroacetate)], the IC50 in experiment [1] (setting [5]) is above 200 nM; against TYK2, above 200 nM; in experiment [3] (setting [7]), 100 nM; in experiment [4] (setting [8]), 15 nM. Also, the “ALK % of inhibition” value in experiment [2] (setting [6]) is given as 34%.

Source of the values: US8871753B2, “Macrocyclic compounds and their use as kinase inhibitors” (Incyte Corporation, priority 2008, dated 2014).
